The text below walks through data of US12473291B2 (priority 2019, dated 2025).

Each structure is given as a SMILES string. Where two headings read alike, the source gives them in different places.

One assay has as its system SD rats. Nature of the assay: animal or person. The class given is in vivo. The settings on record: for ED50: SD rats (male, 220-300 g), injection via the tail vein, disappearance of righting reflex; for 2ED50 duration / 2ED50 recovery time / Quality of recovery: SD rats; for 2ED50 duration / 2ED50 recovery time: single tail vein injection at 2×ED50; for 2ED50 duration: time from disappearance to recovery of righting reflex; for 2ED50 recovery time: time from recovery of righting reflex to free crawling; for Quality of recovery: tail vein injection; for duration and recovery time compared with remimazolam / effective dose compared with remimazolam: rats, tail vein, in words.

A further assay has as its system KM mice. The assay can be described thus: animal or person. The class given is in vivo. The settings on record: for 2ED50 duration / 2ED50 recovery time / Quality of recovery: KM mice; for 2ED50 duration / 2ED50 recovery time: single tail vein injection at 2×ED50; for 2ED50 duration: time from disappearance to recovery of righting reflex; for 2ED50 recovery time: time from recovery of righting reflex to free crawling; for ED50: KM mice (male, 18-22 g), injection via the tail vein, disappearance of righting reflex; for duration and recovery time compared with remimazolam / effective dose compared with remimazolam: mice, tail vein, in words; for Quality of recovery: tail vein injection.

Setting [1] is: Rattus norvegicus, read-out: ED50.

What is called ED50 is the dose that gives a 50% effect, or the effect in half of the subjects. On to `CCOC(=O)OC(C)OC(=O)CC[C@@H]1N=C(c2ccccn2)c2cc(Br)c(Br)cc2-n2c(C)cnc21` (stereo partly drawn) [Example 16], for which, in the assay on SD rats (setting [1]), the ED50 is 3.4 mg/kg. In the assay with SD rats, the “2ED50 duration” value came out at 0.57 min; the 2ED50 recovery time was 0.53 min; the Quality of recovery entry is listed as “+ (“+” means <1 min)”; the “duration and recovery time compared with remimazolam” value is “significantly shorter”. The “effective dose compared with remimazolam” value in the assay with SD rats was “significantly lower”. For the same molecule, in the assay on KM mice, the 2ED50 duration is 1.57 min; the 2ED50 recovery time came out at 1.23 min; the “duration and recovery time compared with remimazolam” value was “significantly shorter”; the “effective dose compared with remimazolam” value is listed as “significantly lower”. Also, in the assay with KM mice (Mus musculus, read-out: ED50), the ED50 stood at 15.7 mg/kg.
With `COC(=O)C(C)OC(=O)CC[C@@H]1N=C(c2ccccn2)c2cc(Br)c(Br)cc2-n2c(C)cnc21` (stereo partly drawn) [Example 22], the 50% effective dose (ED50) in the assay with SD rats (setting [1]) stood at 4.3 mg/kg. For the same molecule, in the assay with SD rats, the “2ED50 duration” value is given as 3.28 min, the 2ED50 recovery time is 2.46 min and the Quality of recovery entry is listed as “++ (“++” means 1-3 min)”. Further, in the assay on KM mice, the 2ED50 duration was found to be 5.58 min, the 2ED50 recovery time came out at 2.18 min and the Quality of recovery entry is on record as “++ (“++” means 1-3 min)”. For the same molecule, the ED50 with KM mice (Mus musculus, read-out: ED50) worked out at 30.7 mg/kg.
Consider `Cc1cnc2n1-c1cc(Br)c(Br)cc1C(c1ccccn1)=N[C@H]2CCC(=O)OC(C)OC(=O)OC(C)C` (stereo partly drawn) [Example 17], for which the ED50 in the assay with SD rats (setting [1]) came to 4.3 mg/kg. In the assay on SD rats, the “2ED50 duration” value amounted to 4.39 min, the 2ED50 recovery time is listed as 2.43 min and the Quality of recovery result is reported as “++ (“++” means 1-3 min)”. Moreover, in the assay on KM mice, the 2ED50 duration was determined as 4.39 min, the 2ED50 recovery time was 2.53 min and the Quality of recovery entry is on record as “++ (“++” means 1-3 min)”. For the same molecule, the ED50 in the assay with KM mice (Mus musculus, read-out: ED50) is 29.2 mg/kg.
For `COC(=O)C1(OC(=O)CC[C@@H]2N=C(c3ccccn3)c3cc(Br)ccc3-n3c(C)cnc32)CC1` [Example 58, Methyl 1-((3-((4S)-8-bromo-1-methyl-6-(pyridine-2-yl)-4H-benzo[f]imidazo [1,2-a][1,4]diaza-4-yl)propionyl)oxy) cyclopropane-1-carboxylate], the ED50 in the assay with SD rats (setting [1]) turned out to be 5.6 mg/kg. Besides, in the assay on SD rats, the “2ED50 duration” value amounted to 5.09 min, the 2ED50 recovery time is recorded as 3.01 min and the Quality of recovery entry is reported as “+++ (“+++” means 3-5 min)”. Further, in the assay on KM mice, the 2ED50 duration is on record as 3.18 min, the 2ED50 recovery time is given as 1.41 min and the Quality of recovery result is “+++ (“+++” means 3-5 min)”. The ED50 in the assay on KM mice (Mus musculus, read-out: ED50) was 28 mg/kg.
As for `CCCOC(=O)OCOC(=O)CC[C@@H]1N=C(c2ccccn2)c2c(ccc(Br)c2F)-n2c(C)cnc21` [Example 72, ((Propoxycarbonyl)oxy)methyl 3-((4S)-8-bromo-7-fluoro-1-methyl-6-(pyridine-2-yl)-4H-benzo[f]imidazo [1,2-a][1,4]diaza-4-ylpropionate sulfonate], the ED50 with SD rats (setting [1]) amounted to 4.9 mg/kg; in the assay on KM mice (Mus musculus, read-out: ED50), 32.5 mg/kg. In addition, the figures for the “2ED50 duration” value in the assay on SD rats and in the assay on KM mice were 4.01 min and 3.12 min, respectively. Besides, the 2ED50 recovery time in the assay on SD rats is on record as 2.43 min; with KM mice, 2.48 min. For the same molecule, the Quality of recovery entry is given as “++ (“++” means 1-3 min)” with SD rats and “+++ (“+++” means 3-5 min)” in the assay with KM mice.
Turning to `COC(=O)OC(C)OC(=O)CC[C@@H]1N=C(c2ccccn2)c2cc(Br)c(Br)cc2-n2c(C)cnc21` (stereo partly drawn) [Example 15], the median effective dose (ED50) with SD rats (setting [1]) was 1.5 mg/kg. In the assay with SD rats, the “2ED50 duration” value is given as 1.29 min; the 2ED50 recovery time was 1.01 min; the Quality of recovery entry is “+ (“+” means <1 min)”; the “duration and recovery time compared with remimazolam” value is recorded as “significantly shorter”. Moreover, the “effective dose compared with remimazolam” value with SD rats is on record as “significantly lower”. For the same molecule, in the assay on KM mice, the 2ED50 duration is given as 1.43 min; the 2ED50 recovery time is 1.01 min; the “duration and recovery time compared with remimazolam” value is on record as “significantly shorter”; the “effective dose compared with remimazolam” value is “significantly lower”. Further, the ED50 in the assay on KM mice (Mus musculus, read-out: ED50) is 18.3 mg/kg.
For the molecule `CCC(CC)OC(=O)OCOC(=O)CC[C@@H]1N=C(c2ccccn2)c2cc(Br)ccc2-n2c(C)cnc21` [Example 50], in the assay on SD rats (setting [1]), the ED50 stood at 6.3 mg/kg. In the assay with SD rats, the “2ED50 duration” value amounted to 3.56 min, the 2ED50 recovery time was 2.41 min and the Quality of recovery result is “++ (“++” means 1-3 min)”. In the assay with KM mice, the 2ED50 duration worked out at 7.84 min, the 2ED50 recovery time is 1.47 min and the Quality of recovery entry is “++ (“++” means 1-3 min)”. Also, in the assay with KM mice (Mus musculus, read-out: ED50), the ED50 was 24.6 mg/kg.
Take `CCOC(=O)COC(=O)CC[C@@H]1N=C(c2ccccn2)c2cc(Br)ccc2-n2c(C)cnc21` [Example 57, 2-Ethoxy-2-oxoethyl-3-((4S)-8-bromo-1-methyl-6-(pyridine-2-yl)-4H-benzo [f]imidazo[1,2-a][1,4]diaza-4-ylpropionate]: the ED50 in the assay with SD rats (setting [1]) is 4.7 mg/kg. Further, in the assay with SD rats, the “2ED50 duration” value stood at 5.07 min; the 2ED50 recovery time came to 2.41 min; the Quality of recovery entry is “+ (“+” means <1 min)”; the “duration and recovery time compared with remimazolam” value is listed as “significantly shorter”. Moreover, the “effective dose compared with remimazolam” value with SD rats is “significantly lower”. Besides, in the assay with KM mice, the 2ED50 duration is 3.90 min; the 2ED50 recovery time came to 2.31 min; the “duration and recovery time compared with remimazolam” value is on record as “significantly shorter”; the “effective dose compared with remimazolam” value is reported as “significantly lower”. The 50% effective dose (ED50) with KM mice (Mus musculus, read-out: ED50) was determined as 25 mg/kg.
`CCOC(=O)COC(=O)CC[C@@H]1N=C(c2ccccn2)c2cc(Cl)ccc2-n2c(C)cnc21` [Example 38]: in the assay on SD rats, the ED50 came out at 6.5 mg/kg, the “2ED50 duration” value came to 4.05 min, the 2ED50 recovery time is 2.55 min and the Quality of recovery result is “++++ (“++++” means 5-10 min)”. For the same molecule, in the assay on KM mice, the ED50 is 25 mg/kg, the 2ED50 duration stood at 3.25 min, the 2ED50 recovery time turned out to be 1.25 min and the Quality of recovery result was “++ (“++” means 1-3 min)”.
With `CCOC(=O)C1(OC(=O)CC[C@@H]2N=C(c3ccccn3)c3cc(Br)ccc3-n3c(C)cnc32)CC1` [Example 59, Ethyl 1-((3-((4S)-8-bromo-1-methyl-6-(pyridine-2-yl)-4H-benzo[f]imidazo [1,2-a][1,4]diaza-4-yl)propionyl)oxy) cyclopropane-1-carboxylate], in the assay on SD rats (setting [1]), the ED50 is 1.76 mg/kg. In the assay on SD rats, the “2ED50 duration” value turned out to be 5.02 min; the 2ED50 recovery time is given as 2.51 min; the Quality of recovery entry is “++ (“++” means 1-3 min)”; the “duration and recovery time compared with remimazolam” value is listed as “significantly shorter”. Further, in the assay with SD rats, the “effective dose compared with remimazolam” value is “significantly lower”. Besides, in the assay with KM mice, the 2ED50 duration came out at 2.77 min; the 2ED50 recovery time is reported as 1.38 min; the “duration and recovery time compared with remimazolam” value is listed as “significantly shorter”; the “effective dose compared with remimazolam” value is recorded as “significantly lower”. The ED50 in the assay with KM mice (Mus musculus, read-out: ED50) stood at 13.8 mg/kg.
With `COC(=O)C(C)(C)OC(=O)CC[C@@H]1N=C(c2ccccn2)c2cc(Br)c(Cl)cc2-n2c(C)cnc21` [Example 24], the ED50 in the assay with SD rats (setting [1]) was 6.8 mg/kg. For the same molecule, in the assay on SD rats, the “2ED50 duration” value is 0.50 min; the 2ED50 recovery time is reported as 0.47 min; the Quality of recovery entry is reported as “+ (“+” means <1 min)”; the “duration and recovery time compared with remimazolam” value is “significantly shorter”. Besides, the “effective dose compared with remimazolam” value in the assay with SD rats is given as “significantly lower”. Further, in the assay with KM mice, the 2ED50 duration stood at 1.50 min; the 2ED50 recovery time came to 1.02 min; the “duration and recovery time compared with remimazolam” value is listed as “significantly shorter”; the “effective dose compared with remimazolam” value is “significantly lower”. Further, in the assay with KM mice (Mus musculus, read-out: ED50), the ED50 was 12 mg/kg.
For the molecule `COC(=O)C1(OC(=O)CC[C@@H]2N=C(c3ccccn3)c3cc(Cl)c(Cl)c(Cl)c3-n3c(C)cnc32)CC1` [Example 46], the ED50 with SD rats (setting [1]) was found to be 6.3 mg/kg. Further, in the assay with SD rats, the “2ED50 duration” value came to 3.17 min; the 2ED50 recovery time came out at 2.28 min; the Quality of recovery result is “+ (“+” means <1 min)”; the “duration and recovery time compared with remimazolam” value was “significantly shorter”. Moreover, the “effective dose compared with remimazolam” value in the assay with SD rats is “significantly lower”. Also, in the assay with KM mice, the 2ED50 duration is on record as 1.21 min, the 2ED50 recovery time was determined as 1.08 min and the Quality of recovery entry was “+++ (“+++” means 3-5 min)”. In the assay with KM mice (Mus musculus, read-out: ED50), the ED50 was found to be 32 mg/kg.
For `CCOC(=O)C(C)(C)OC(=O)CC[C@@H]1N=C(c2ccccn2)c2c(cc(C)c(Cl)c2C)-n2c(C)cnc21` [Example 77, Ethyl 2-((3-((4S)-8-chloro-1,7,9-trimethyl-6-(pyridine-2-yl)-4H-benzo[f]imidazo[1,2-a][1,4]diazapin-4-yl)propionyl)oxy)-2-methylpropionate 2-hydroxy-1-naphthoate], the ED50 with SD rats (setting [1]) was found to be 6.1 mg/kg. Also, in the assay with SD rats, the “2ED50 duration” value was 2.38 min, the 2ED50 recovery time is recorded as 2.47 min and the Quality of recovery entry is “+++ (“+++” means 3-5 min)”. In the assay with KM mice, the 2ED50 duration is 3.28 min, the 2ED50 recovery time is reported as 2.39 min and the Quality of recovery entry is “+++ (“+++” means 3-5 min)”. Further, the ED50 in the assay with KM mice (Mus musculus, read-out: ED50) stood at 30.2 mg/kg.
For `COC(=O)C1(OC(=O)CC[C@@H]2N=C(c3ccccn3)c3c(Cl)cc(C(F)(F)F)cc3-n3c(C)cnc32)CC1` [Example 39], the 50% effective dose (ED50) in the assay with SD rats (setting [1]) turned out to be 6.7 mg/kg. In the assay on SD rats, the “2ED50 duration” value was 4.03 min, the 2ED50 recovery time amounted to 2.48 min and the Quality of recovery result is “++ (“++” means 1-3 min)”. For the same molecule, in the assay on KM mice, the 2ED50 duration worked out at 5.09 min, the 2ED50 recovery time was found to be 2.28 min and the Quality of recovery result is reported as “+++ (“+++” means 3-5 min)”. Also, the ED50 in the assay with KM mice (Mus musculus, read-out: ED50) is 26.7 mg/kg.
